Values of other authors in patent publication US20040258741A1, “Percutaneous absorption preparations” (priority 2001, published 2004).
Counter-ions that a name gives are not always drawn.

Assays:
AChE [1] = biological target: T1, AChE (Homo sapiens, UniProt P22303)
AChE [2] = biological target: T1, AChE; conditions: in vitro
intracranial ACh = conditions: in vivo

T1 sequence (P22303 32-614): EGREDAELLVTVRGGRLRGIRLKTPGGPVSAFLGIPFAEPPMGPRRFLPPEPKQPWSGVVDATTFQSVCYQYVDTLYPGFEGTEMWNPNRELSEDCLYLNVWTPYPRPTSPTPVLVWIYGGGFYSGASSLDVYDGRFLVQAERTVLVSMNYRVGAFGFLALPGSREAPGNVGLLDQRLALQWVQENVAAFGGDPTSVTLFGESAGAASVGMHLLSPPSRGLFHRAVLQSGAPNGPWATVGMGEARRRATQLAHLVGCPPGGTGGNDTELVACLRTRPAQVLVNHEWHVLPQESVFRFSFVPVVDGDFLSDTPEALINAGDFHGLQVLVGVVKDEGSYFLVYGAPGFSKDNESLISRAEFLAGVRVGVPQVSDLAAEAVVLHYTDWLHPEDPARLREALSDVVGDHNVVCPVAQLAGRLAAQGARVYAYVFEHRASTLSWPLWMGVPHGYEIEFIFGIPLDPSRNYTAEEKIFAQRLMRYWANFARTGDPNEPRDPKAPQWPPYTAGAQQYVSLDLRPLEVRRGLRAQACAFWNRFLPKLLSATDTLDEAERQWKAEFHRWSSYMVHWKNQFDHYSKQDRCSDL

Row | Structure (SMILES) | in vitro AChE inhibition action compared with Donepezil (AChE [1]) | AChE selectivity compared with tacrine (AChE [2]) | intracranial ACh (intracranial ACh)
1 | COc1cc2c(cc1OC)C(=O)C(F)(CC1CCN(Cc3cccc(F)c3)CC1)C2 (stereo not drawn) [ER-127528, 4-[(5,6-dimethoxy-2-fluoro-1-indanon)-2-yl]methyl-1-(3-fluorobenzyl)piperidine hydrochloride] | stronger in vitro AChE inhibition action than Donepezil |  | 
2 | O=C(O)/C=C\C(=O)O.O=C1Cc2cc3c(CCC4CCN(Cc5ccccc5)CC4)noc3cc2N1 [Icopezil, 5,7-dihydro-3-[2-[1-(phenylmethyl)-4-piperidinyl]ethyl]-6H-pyrrolo-[4,5-f]-1,2-benzisoxazol-6-one maleate] |  | higher AChE selectivity than the existing AChE inhibitor tacrine | clearly increases intracranial ACh in vivo
